Measured values published in patent US10383948B2, “Anti-cMet antibody drug conjugates and methods for their use” (AbbVie Inc., priority 2016, dated 2019).

Legend:
[1] = tested on: NHBE (normal bronchial epithelial); experiment: Cytotoxicity assay (CellTiter-Glo, 6 days); type: cell-based; conditions: NHBE (bronchial epithelial) non-tumor; relative to untreated control at ≤1 μg/mL in a six day proliferation
Experimental: (§1) Tumor cells were plated at 2000-5000 cells/well in 180 μL growth medium containing 10% FBS in 96-well plates, and cultured at 37° C. in a humidified incubator with 5% C02. The following day, titrations of antibodies or ADCs in 20 μL were added and cells were incubated for 6 days. Cell viability was determined using a CellTiter-Glo Luminescent Cell Viability Assay (Promega) according to the manufacturer's instructions. A non-binding, irrelevant negative control ADC conjugated to MMAE was also included in all assays to confirm that cell killing was antigen dependent.
as §1, with “of” for “of antibodies or”, “antigen-dependent.” for “antigen dependent.”

NSCLC = experiment: Phase 1b combination with erlotinib; type: in vivo, human; conditions: ABBV-399 2.7 mg/kg once every 21 days plus erlotinib 150 mg orally every day
Description: ABBV-399 will be combined with standard doses of erlotinib, cetuximab, bevacizumab or nivolumab starting at an ABBV-399 dose level below the MTD or MAD and then escalated no higher than MTD or MAD determined in the monotherapy dose-escalation/expansion. Dose limiting toxicity definitions will apply to the dose-escalation portion of each Combination.

CTG-0165 NSCL PDX = experiment: Patient-derived xenograft, tumor growth delay; type: in vivo, NSG mice; conditions: PDX CTG-0165 (NSCL); every seven days, six doses; median time to 1 cm^3 vs control
Experimental: (§2) Tumor fragments of 3 to 5 mm^3 at passage 3 (P3) were implanted subcutaneously in the right rear flank of NSG mice (The Jackson Laboratory) with a trochar. ABBV-399 and ABT-700 PBD were administered every seven days for a total of six doses. […] For all groups, tumor volumes were plotted only for the duration that allowed the full set of animal to remain on study. If animals had to be taken off study, the remaining animals were monitored for tumor growth until they reached defined end-points.

CTG-0652 colorectal PDX = experiment: Patient-derived xenograft, tumor growth delay; type: in vivo, NSG mice; conditions: PDX CTG-0652 (Colorectal); every seven days, six doses; median time to 1 cm^3 vs control
Experimental: as §2

CTG-0440 colorectal PDX = experiment: Patient-derived xenograft, tumor growth delay; type: in vivo, NSG mice; conditions: PDX CTG-0440 (Colorectal); every seven days, six doses; median time to 1 cm^3 vs control
Experimental: as §2

CTG-0178 NSCL PDX = experiment: Patient-derived xenograft, tumor growth delay; type: in vivo, NSG mice; conditions: PDX CTG-0178 (NSCL); every seven days, six doses; median time to 1 cm^3 vs control
Experimental: as §2

CTG-0159 NSCL PDX = experiment: Patient-derived xenograft, tumor growth delay; type: in vivo, NSG mice; conditions: PDX CTG-0159 (NSCL); every seven days, six doses; median time to 1 cm^3 vs control
Experimental: as §2

CTG-0167 NSCL PDX = experiment: Patient-derived xenograft, tumor growth delay; type: in vivo, NSG mice; conditions: PDX CTG-0167 (NSCL); every seven days, six doses; median time to 1 cm^3 vs control
Experimental: as §2

CTG-0358 colorectal PDX = experiment: Patient-derived xenograft, tumor growth delay; type: in vivo, NSG mice; conditions: PDX CTG-0358 (Colorectal); every seven days, six doses; median time to 1 cm^3 vs control
Experimental: as §2

CTG-0062 colorectal PDX = experiment: Patient-derived xenograft, tumor growth delay; type: in vivo, NSG mice; conditions: PDX CTG-0062 (Colorectal); every seven days, six doses; median time to 1 cm^3 vs control
Experimental: as §2

CTG-0117 colorectal PDX = experiment: Patient-derived xenograft, tumor growth delay; type: in vivo, NSG mice; conditions: PDX CTG-0117 (Colorectal); every seven days, six doses; median time to 1 cm^3 vs control
Experimental: as §2

CTG-0058 colorectal PDX = experiment: Patient-derived xenograft, tumor growth delay; type: in vivo, NSG mice; conditions: PDX CTG-0058 (Colorectal); every seven days, six doses; median time to 1 cm^3 vs control
Experimental: as §2

CTG-0176 NSCL PDX = experiment: Patient-derived xenograft, tumor growth delay; type: in vivo, NSG mice; conditions: PDX CTG-0176 (NSCL); every seven days, six doses; median time to 1 cm^3 vs control
Experimental: as §2

CTG-0164 NSCL PDX = experiment: Patient-derived xenograft, tumor growth delay; type: in vivo, NSG mice; conditions: PDX CTG-0164 (NSCL); every seven days, six doses; median time to 1 cm^3 vs control
Experimental: as §2

CTG-0796 colorectal PDX = experiment: Patient-derived xenograft, tumor growth delay; type: in vivo, NSG mice; conditions: PDX CTG-0796 (Colorectal); every seven days, six doses; median time to 1 cm^3 vs control
Experimental: as §2

CTG-0084 colorectal PDX = experiment: Patient-derived xenograft, tumor growth delay; type: in vivo, NSG mice; conditions: PDX CTG-0084 (Colorectal); every seven days, six doses; median time to 1 cm^3 vs control
Experimental: as §2

CTG-0406 colorectal PDX = experiment: Patient-derived xenograft, tumor growth delay; type: in vivo, NSG mice; conditions: PDX CTG-0406 (Colorectal); every seven days, six doses; median time to 1 cm^3 vs control
Experimental: as §2

CTG-0387 colorectal PDX = experiment: Patient-derived xenograft, tumor growth delay; type: in vivo, NSG mice; conditions: PDX CTG-0387 (Colorectal); every seven days, six doses; median time to 1 cm^3 vs control
Experimental: as §2

CTG-0162 NSCL PDX = experiment: Patient-derived xenograft, tumor growth delay; type: in vivo, NSG mice; conditions: PDX CTG-0162 (NSCL); every seven days, six doses; median time to 1 cm^3 vs control
Experimental: as §2

[2] = tested on: NCI-H441 lung cancer xenografts; experiment: NCI-H441 xenograft efficacy; type: in vivo, mice; conditions: both every four days, six doses; dose-dependent; FIG. 11B
Description: Food and water were available ad libitum.
Each experimental group included 8-10 animals.

ABBV-399: ADC comprised of the cMet targeting antibody ABT-700 conjugated to MMAE through a valine citrulline (vc) linker
Maximal Killing [1]: 10% | patients with partial response (NSCLC): 2/6 | patients with progressive disease (new lesions) (NSCLC): 1/6 | TGD (%) tumor growth delay (CTG-0165 NSCL PDX): 170% | TGD (%) tumor growth delay (CTG-0652 colorectal PDX): 350% | TGD (%) tumor growth delay (CTG-0440 colorectal PDX): 12% | TGD (%) tumor growth delay (CTG-0178 NSCL PDX): 0% | TGD (%) tumor growth delay (CTG-0159 NSCL PDX): 288% | TGD (%) tumor growth delay (CTG-0167 NSCL PDX): 0% | TGD (%) tumor growth delay (CTG-0358 colorectal PDX): 94% | TGD (%) tumor growth delay (CTG-0062 colorectal PDX): 0% | TGD (%) tumor growth delay (CTG-0117 colorectal PDX): 0% | TGD (%) tumor growth delay (CTG-0058 colorectal PDX): 71% | TGD (%) tumor growth delay (CTG-0176 NSCL PDX): 71% | TGD (%) tumor growth delay (CTG-0164 NSCL PDX): 25% | TGD (%) tumor growth delay (CTG-0796 colorectal PDX): 78% | TGD (%) tumor growth delay (CTG-0084 colorectal PDX): 0% | TGD (%) tumor growth delay (CTG-0406 colorectal PDX): 0% | TGD (%) tumor growth delay (CTG-0387 colorectal PDX): 0% | TGD (%) tumor growth delay (CTG-0162 NSCL PDX): 88% | in vivo activity, comparison [2]: more active than ABT-700 alone
